According to patent US20260125382A1, “COMPOUNDS FOR INHIBITING OR DEGRADING CDK2 AND/OR CDK9 AND MEDICINAL USE THEREOF” (KOREA RESEARCH INSTITUTE OF CHEMICAL TECHNOLOGY, priority 2022, published 2026):

What was measured:
CDK9 = target: T1, CDK9 (Homo sapiens, UniProt P50750); assay: CDK protein degradation activity (Western blotting), CDK9; assay type: cell-based; settings: MDA-MB-231 cells, 16 hours, Western blot
T1 construct: endogenous in cells; host or cells: MDA-MB-231
Outline: (§1)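 MDA-MB-231 cells were treated with compound at final concentrations of 100 nM, 1 μM and 10 μM, or DMSO vehicle, for 16 h. Lysates were resolved by SDS-PAGE and immunoblotted for CDK2, CDK9 and tubulin, with band intensities quantified densitometrically.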

CDK2 = target: T2, CDK2 (Homo sapiens, UniProt P24941); assay: CDK protein degradation activity (Western blotting), CDK2; assay type: cell-based; settings: MDA-MB-231 cells, 16 hours, Western blot
T2 construct: endogenous in cells; host or cells: MDA-MB-231
Outline: as §1

T1 sequence (P50750 whole entry): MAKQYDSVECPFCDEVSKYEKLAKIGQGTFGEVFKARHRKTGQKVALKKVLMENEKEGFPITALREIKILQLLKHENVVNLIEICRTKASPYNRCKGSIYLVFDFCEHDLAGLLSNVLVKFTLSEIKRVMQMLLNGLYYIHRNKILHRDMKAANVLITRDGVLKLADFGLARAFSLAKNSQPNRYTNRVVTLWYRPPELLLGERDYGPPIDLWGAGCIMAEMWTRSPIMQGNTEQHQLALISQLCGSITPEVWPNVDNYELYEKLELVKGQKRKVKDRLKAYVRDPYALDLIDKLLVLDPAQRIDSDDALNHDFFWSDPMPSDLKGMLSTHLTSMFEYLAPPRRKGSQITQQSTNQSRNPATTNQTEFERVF

| Enzyme degradation CDK9 (% remaining) @ 0.1 μM (CDK9) | Enzyme degradation CDK9 (% remaining) @ 1 μM (CDK9) | Enzyme degradation CDK9 (% remaining) @ 10 μM (CDK9) | Enzyme degradation CDK2 (% remaining) @ 0.1 μM (CDK2) | Enzyme degradation CDK2 (% remaining) @ 1 μM (CDK2) | Enzyme degradation CDK2 (% remaining) @ 10 μM (CDK2) | Compound |
| --- | --- | --- | --- | --- | --- | --- |
| 10% | 0% | 0% | 30% | 40% | 50% | Cc1cccc(C(=O)N[C@H]2C[C@@H](n3cnc4c(NCc5ccc(OCCCN6CCN(c7ccc8c(c7)C(=O)N(C7CCC(=O)NC7=O)C8=O)CC6)cc5)ncnc43)C2)n1 (stereo partly drawn) [Compound 116, N-((1s,3s)-3-(6-((4-(3-(4-(2-(2,6-dioxopiperidin-3-yl)-1,3-dioxoisoindolin-5-yl)piperazin-1-yl)propoxy)benzyl)amino)-9H-purin-9-yl)cyclobutyl)-6-methylpicolinamide] |
| 10% | 10% | 0% | 80/80/80% | 80/80/80% | 80/80/80% | Cc1cccc(C(=O)N[C@H]2C[C@@H](n3cnc4c(NCc5ccc(OCCCN6CCN(c7cccc8c7C(=O)N([C@H]7CCC(=O)NC7=O)C8=O)CC6)cc5)ncnc43)C2)n1 [Compound 117, N-((1s,3s)-3-(6-((4-(3-(4-(2-(2,6-dioxopiperidin-3-yl)-1,3-dioxoisoindolin-4-yl)piperazin-1-yl)propoxy)benzyl)amino)-9H-purin-9-yl)cyclobutyl)-6-methylpicolinamide] |
| 10% | 0% | 0% | 30% | 10% | 0% | Cc1cccc(C(=O)NC2CC(n3cnc4c(NCCC5CCN(CC6CCN(C(=O)COc7cccc8c7C(=O)N([C@H]7CCC(=O)NC7=O)C8=O)CC6)CC5)ncnc43)C2)n1 (stereo partly drawn) [Compound 122, N-((1s,3s)-3-(6-((2-(1-((1-(2-((2-(2,6-dioxopiperidin-3-yl)-1,3-dioxoisoindolin-4-yl)oxy)acetyl)piperidin-4-yl)methyl)piperidin-4-yl)ethyl)amino)-9H-purin-9-yl)cyclobutyl)-6-methylpicolinamide] |
| 0/0/0% | 0/0/0% | 0/0/0% | 10% | 10% | 20% | Cc1cccc(C(=O)NC2CC(n3cnc4c(NCCC5CCN(CC6CCN(C(=O)CNc7cccc8c7C(=O)N([C@H]7CCC(=O)NC7=O)C8=O)CC6)CC5)ncnc43)C2)n1 (stereo partly drawn) [Compound 123, N-((1s,3s)-3-(6-((2-(1-((1-((2-(2,6-dioxopiperidin-3-yl)-1,3-dioxoisoindolin-4-yl)glycyl)piperidin-4-yl)methyl)piperidin-4-yl)ethyl)amino)-9H-purin-9-yl)cyclobutyl)-6-methylpicolinamide] |
| 100% | 40% | 20% | 60% | 40% | 10% | Cc1cccc(C(=O)N[C@H]2C[C@@H](n3cnc4c(NCc5cccc(N6CCN(C(=O)CNc7cccc8c7C(=O)N(C7CCC(=O)NC7=O)C8=O)CC6)c5)ncnc43)C2)n1 (stereo partly drawn) [Compound 130, N-((1s,3s)-3-(6-((3-(4-((2-(2,6-dioxopiperidin-3-yl)-1,3-dioxoisoindolin-4-yl)glycyl)piperazin-1-yl)benzyl)amino)-9H-purin-9-yl)cyclobutyl)-6-methylpicolinamide] |
| 70% | 10% | 0% | 60% | 40% | 40% | Cc1cccc(C(=O)N[C@H]2C[C@@H](n3cnc4c(NCc5cccc(N6CCN(CC7CCN(C(=O)COc8cccc9c8C(=O)N(C8CCC(=O)NC8=O)C9=O)CC7)CC6)c5)ncnc43)C2)n1 (stereo partly drawn) [Compound 132, N-((1s,3s)-3-(6-((3-(4-((1-(2-((2-(2,6-dioxopiperidin-3-yl)-1,3-dioxoisoindolin-4-yl)oxy)acetyl)piperidin-4-yl)methyl)piperazin-1-yl)benzyl)amino)-9H-purin-9-yl)cyclobutyl)-6-methylpicolinamide] |

More lines, now with the values behind:

| Compound | Enzyme degradation CDK9 (% remaining) @ 0.1 μM (CDK9) | Enzyme degradation CDK9 (% remaining) @ 1 μM (CDK9) | Enzyme degradation CDK9 (% remaining) @ 10 μM (CDK9) | Enzyme degradation CDK2 (% remaining) @ 0.1 μM (CDK2) | Enzyme degradation CDK2 (% remaining) @ 1 μM (CDK2) | Enzyme degradation CDK2 (% remaining) @ 10 μM (CDK2) |
| --- | --- | --- | --- | --- | --- | --- |
| Cc1cccc(C(=O)N[C@H]2C[C@@H](n3cnc4c(NCc5ccc(OCCCN6CCN(C(=O)COc7cccc8c7C(=O)N([C@H]7CCC(=O)NC7=O)C8=O)CC6)cc5)ncnc43)C2)n1 [Compound 113, N-((1s,3s)-3-(6-((4-(3-(4-(2-((2-(2,6-dioxopiperidin-3-yl)-1,3-dioxoisoindolin-4-yl)oxy)acetyl)piperazin-1-yl)propoxy)benzyl)amino)-9H-purin-9-yl)cyclobutyl)-6-methylpicolinamide] | 100% | 10% | 0% | 30/30/30% | 30/30/30% | 30/30/30% |
| Cc1cccc(C(=O)NC2CC(n3cnc4c(NCc5ccc(OCCCN6CCN(C(=O)CNc7ccc8c(c7)C(=O)N([C@H]7CCC(=O)NC7=O)C8=O)CC6)cc5)ncnc43)C2)n1 (stereo partly drawn) [Compound 114, N-((1s,3s)-3-(6-((4-(3-(4-((2-(2,6-dioxopiperidin-3-yl)-1,3-dioxoisoindolin-5-yl)glycyl)piperazin-1-yl)propoxy)benzyl)amino)-9H-purin-9-yl)cyclobutyl)-6-methylpicolinamide] | 0/0/0% | 0/0/0% | 0/0/0% | 30% | 40% | 50% |
| Cc1cccc(C(=O)N[C@H]2C[C@@H](n3cnc4c(NCc5ccc(OCCCN6CCN(C(=O)CNc7cccc8c7C(=O)N([C@H]7CCC(=O)NC7=O)C8=O)CC6)cc5)ncnc43)C2)n1 [Compound 115, N-((1s,3s)-3-(6-((4-(3-(4-((2-(2,6-dioxopiperidin-3-yl)-1,3-dioxoisoindolin-4-yl)glycyl)piperazin-1-yl)propoxy)benzyl)amino)-9H-purin-9-yl)cyclobutyl)-6-methylpicolinamide] | 0/0/0% | 0/0/0% | 0/0/0% | 30% | 40% | 50% |
| Cc1cccc(C(=O)N[C@H]2C[C@@H](n3cnc4c(NCCC5CCN(CC6CCN(C(=O)COc7ccc8c(c7)C(=O)N([C@H]7CCC(=O)NC7=O)C8=O)CC6)CC5)ncnc43)C2)n1 [Compound 124, N-((1s,3s)-3-(6-((2-(1-((1-(2-((2-(2,6-dioxopiperidin-3-yl)-1,3-dioxoisoindolin-5-yl)oxy)acetyl)piperidin-4-yl)methyl)piperidin-4-yl)ethyl)amino)-9H-purin-9-yl)cyclobutyl)-6-methylpicolinamide] | 0/0/0% | 0/0/0% | 0/0/0% | 40% | 20% | 10% |
| Cc1cccc(C(=O)NC2CC(n3cnc4c(NCc5cccc(N6CCN(c7cccc8c7C(=O)N([C@H]7CCC(=O)NC7=O)C8=O)CC6)c5)ncnc43)C2)n1 (stereo partly drawn) [Compound 126, N-((1s,3s)-3-(6-((3-(4-(2-(2,6-dioxopiperidin-3-yl)-1,3-dioxoisoindolin-4-yl)piperazin-1-yl)benzyl)amino)-9H-purin-9-yl)cyclobutyl)-6-methylpicolinamide] | 80% | 70% | 70% | 80% | 70% | 70% |
| Cc1cccc(C(=O)NC2CC(n3cnc4c(NCc5cccc(N6CCN(C(=O)COc7cccc8c7C(=O)N([C@H]7CCC(=O)NC7=O)C8=O)CC6)c5)ncnc43)C2)n1 (stereo partly drawn) [Compound 128, N-((1s,3s)-3-(6-((3-(4-(2-((2-(2,6-dioxopiperidin-3-yl)-1,3-dioxoisoindolin-4-yl)oxy)acetyl)piperazin-1-yl)benzyl)amino)-9H-purin-9-yl)cyclobutyl)-6-methylpicolinamide] | 90% | 60% | 100% | 90% | 50% | 100% |
| Cc1cccc(C(=O)N[C@H]2C[C@@H](n3cnc4c(NCc5cccc(N6CCN(C(=O)CNc7ccc8c(c7)C(=O)N([C@H]7CCC(=O)NC7=O)C8=O)CC6)c5)ncnc43)C2)n1 [Compound 131, N-((1s,3s)-3-(6-((3-(4-((2-(2,6-dioxopiperidin-3-yl)-1,3-dioxoisoindolin-5-yl)glycyl)piperazin-1-yl)benzyl)amino)-9H-purin-9-yl)cyclobutyl)-6-methylpicolinamide] | 60/60/60% | 60/60/60% | 60/60/60% | 80% | 100% | 100% |
